The target of assay [1] is wild-type human cardiac sodium channel, hNaV 1.5 (Peak INa) (Homo sapiens, UniProt Q14524). The assay can be described thus: Peak INa screening assay (tonic block and use-dependent block). The assay is classed as cell-based. The procedure: The assay uses an HEK293 (human embryonic kidney) cell line heterologously expressing the wild-type human cardiac sodium channel, hNaV 1.5, purchased from Millipore (Billerica, Mass.). No beta subunits were coexpressed with the Na channel alpha subunit. Cells are maintained with standard tissue culture procedures and stable channel expression is maintained with 400 μg/mL Geneticin in the culture medium. […] Currents are digitized at 25 kHz and low-pass filtered at 5 kHz and stored in the Sophion Bioscience Oracle database (Sophion Bioscience, Copenhagen, Denmark). Analysis is performed using QPatch Assay software and data are compiled in Excel 2010 (Microsoft, Seattle, Wash., U.S.A.). Compound stocks are routinely made by the Gilead Sample Bank in vials to 10 mM in dimethyl sulfoxide (DMSO). In some cases, when compounds are not soluble in DMSO, they are made in 100% ethanol. Stocks are sonicated as necessary. The extracellular solution for screening Late INa is composed of: 140 mM NaCl, 4 mM KCl, 1.8 mM CaCl2, 1 mM MgCl2, 10 mM HEPES and 10 mM Dextrose with pH adjusted to 7.35 using NaOH. The intracellular solution contains: 105 mM CsF, 20 mM CsCl, 10 NaF, 2 mM EGTA, 10 mM HEPES and 10 mM Dextrose with pH adjusted to 7.35 with CsOH. Compounds are diluted in extracellular solution using a MicroLab Nimbus (Hamilton Robotics, Reno, Nev.) to between 0.3 and 3 μM in glass vials and transferred to glass well plates before robotic addition to the cells. […] It is contemplated that the compounds of Formula I avoid significant block of peak INa. […] The intracellular solution used for the Peak INa assay is the same as outlined for the Late INa assay (see above). After establishing the whole cell recording configuration, channels were stimulated to open with low frequency (0.1 Hz) for so that the recording can be monitored and the extent to which the recording has stabilized can be assessed. The test compound is then applied at 1 or 3 μM was added 2 times at 60 second intervals. After the second compound addition, a 200 second wait period was imposed to allow for equilibration. Voltage protocols for TB and UDB are were performed in the absence and presence of compound and TB and UDB are calculated with respect to the compound free condition. Both TB and UDB were analyzed by incorporating rundown correction for the peak INa.
Sequence of wild-type human cardiac sodium channel, hNaV 1.5 (Peak INa) (Q14524 whole entry): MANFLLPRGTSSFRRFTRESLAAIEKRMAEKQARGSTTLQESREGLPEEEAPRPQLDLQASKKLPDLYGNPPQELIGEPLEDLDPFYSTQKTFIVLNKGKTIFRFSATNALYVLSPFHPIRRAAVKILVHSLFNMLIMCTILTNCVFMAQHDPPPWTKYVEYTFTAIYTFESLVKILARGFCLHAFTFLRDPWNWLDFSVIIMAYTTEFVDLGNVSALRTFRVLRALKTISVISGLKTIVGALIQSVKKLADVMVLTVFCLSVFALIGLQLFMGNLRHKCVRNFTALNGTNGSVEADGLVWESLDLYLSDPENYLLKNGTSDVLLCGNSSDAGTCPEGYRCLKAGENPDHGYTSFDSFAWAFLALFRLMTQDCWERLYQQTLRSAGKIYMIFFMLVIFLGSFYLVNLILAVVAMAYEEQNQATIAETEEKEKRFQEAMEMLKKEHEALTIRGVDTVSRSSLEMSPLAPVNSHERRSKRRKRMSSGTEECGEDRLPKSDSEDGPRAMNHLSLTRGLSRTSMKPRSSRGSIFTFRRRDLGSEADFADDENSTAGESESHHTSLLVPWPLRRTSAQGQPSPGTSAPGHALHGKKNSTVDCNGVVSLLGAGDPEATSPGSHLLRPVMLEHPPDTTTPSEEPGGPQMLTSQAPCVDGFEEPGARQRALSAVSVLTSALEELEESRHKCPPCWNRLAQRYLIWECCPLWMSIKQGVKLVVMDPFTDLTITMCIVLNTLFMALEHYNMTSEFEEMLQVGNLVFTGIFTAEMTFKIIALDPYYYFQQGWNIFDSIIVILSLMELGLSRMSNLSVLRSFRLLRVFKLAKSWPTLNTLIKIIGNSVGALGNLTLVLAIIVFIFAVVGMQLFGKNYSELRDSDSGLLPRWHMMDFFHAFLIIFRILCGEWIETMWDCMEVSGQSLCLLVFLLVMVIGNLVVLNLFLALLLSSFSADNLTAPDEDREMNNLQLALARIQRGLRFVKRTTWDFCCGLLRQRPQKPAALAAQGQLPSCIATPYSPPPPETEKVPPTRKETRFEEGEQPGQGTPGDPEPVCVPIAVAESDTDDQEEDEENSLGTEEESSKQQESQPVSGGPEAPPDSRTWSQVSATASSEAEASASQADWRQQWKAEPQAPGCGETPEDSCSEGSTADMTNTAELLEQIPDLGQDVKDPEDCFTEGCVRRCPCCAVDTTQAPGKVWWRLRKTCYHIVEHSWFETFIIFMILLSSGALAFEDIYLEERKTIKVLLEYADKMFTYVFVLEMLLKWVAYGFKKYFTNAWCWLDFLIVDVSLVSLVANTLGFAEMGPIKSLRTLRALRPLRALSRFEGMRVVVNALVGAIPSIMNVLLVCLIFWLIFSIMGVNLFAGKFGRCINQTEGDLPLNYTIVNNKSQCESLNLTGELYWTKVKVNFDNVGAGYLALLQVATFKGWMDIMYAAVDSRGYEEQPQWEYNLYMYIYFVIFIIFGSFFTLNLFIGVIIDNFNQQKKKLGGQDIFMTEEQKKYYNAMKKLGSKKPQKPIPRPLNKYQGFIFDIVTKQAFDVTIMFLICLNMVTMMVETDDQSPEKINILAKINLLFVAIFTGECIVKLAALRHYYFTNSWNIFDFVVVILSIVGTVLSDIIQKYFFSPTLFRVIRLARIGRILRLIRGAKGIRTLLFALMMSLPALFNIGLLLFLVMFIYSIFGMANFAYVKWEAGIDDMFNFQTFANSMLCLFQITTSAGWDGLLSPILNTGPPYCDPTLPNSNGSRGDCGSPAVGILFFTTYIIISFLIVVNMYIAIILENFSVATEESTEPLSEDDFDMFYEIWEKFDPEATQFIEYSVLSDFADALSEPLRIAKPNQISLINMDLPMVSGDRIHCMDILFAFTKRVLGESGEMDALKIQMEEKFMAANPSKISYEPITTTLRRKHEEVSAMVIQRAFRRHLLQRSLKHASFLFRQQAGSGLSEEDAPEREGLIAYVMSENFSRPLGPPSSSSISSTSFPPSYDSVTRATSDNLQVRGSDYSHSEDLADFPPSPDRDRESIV

Assay [2] deals with wild-type human cardiac sodium channel, hNaV 1.5 (Late INa) (Homo sapiens, UniProt Q14524). In words: Late INa screening assay (whole cell patch clamp, QPatch, Tefluthrin-induced late current). The assay is classed as cell-based. To be noted: HEK293, % inhibition (percent block of late INa) at 1 uM; HEK293 hNaV1.5; 10 μM Tefluthrin; read-out: Nav1.5 Late INa 1 uM. The procedure:
The cardiac late sodium current (Late INa) and peak sodium current (Peak INa) assays are performed on an automated electrophysiology platform, QPatch 16X or QPatch HT (Sophion Bioscience, Copenhagen, Denmark) using the whole cell patch clamp technique to measure currents through the cell membrane. The assay uses an HEK293 (human embryonic kidney) cell line heterologously expressing the wild-type human cardiac sodium channel, hNaV 1.5, purchased from Millipore (Billerica, Mass.). No beta subunits were coexpressed with the Na channel alpha subunit. Cells are maintained with standard tissue culture procedures and stable channel expression is maintained with 400 μg/mL Geneticin in the culture medium. Experiments are carried out at 23-25° C.
For both the Late INa and Peak INa assays, series resistance compensation is set to 100% and series resistance and whole-cell compensation are performed automatically. Currents are digitized at 25 kHz and low-pass filtered at 5 kHz and stored in the Sophion Bioscience Oracle database (Sophion Bioscience, Copenhagen, Denmark). Analysis is performed using QPatch Assay software and data are compiled in Excel 2010 (Microsoft, Seattle, Wash., U.S.A.).
Compound stocks are routinely made by the Gilead Sample Bank in vials to 10 mM in dimethyl sulfoxide (DMSO). In some cases, when compounds are not soluble in DMSO, they are made in 100% ethanol. Stocks are sonicated as necessary. The extracellular solution for screening Late INa is composed of: 140 mM NaCl, 4 mM KCl, 1.8 mM CaCl2, 1 mM MgCl2, 10 mM HEPES and 10 mM Dextrose with pH adjusted to 7.35 using NaOH. The intracellular solution contains: 105 mM CsF, 20 mM CsCl, 10 NaF, 2 mM EGTA, 10 mM HEPES and 10 mM Dextrose with pH adjusted to 7.35 with CsOH. Compounds are diluted in extracellular solution using a MicroLab Nimbus (Hamilton Robotics, Reno, Nev.) to between 0.3 and 3 μM in glass vials and transferred to glass well plates before robotic addition to the cells. The 0 mM Na extracellular solution (0Na-ECF) used at the end of each experiment for the Late INa and Peak INa assays to measure baseline current contains: 140 Choline-Cl; 4 mM KCl, 1.8 mM CaCl2; 1 mM MgCl2; 10 mM HEPES and 10 mM Dextrose with pH was adjusted to 7.35 with CsOH.
For the Late INa assay, sodium channels are activated every 10 seconds (0.1 Hz) by depolarizing the cell membrane to −20 mV for 250 milliseconds (ms) from a holding potential of −120 mV.
Compounds were tested to determine their activity in blocking the late sodium current. Late INa was generated by adding 10 μM Tefluthrin (pyrethroid) to the extracellular solution. For the purposes of the screening, Late INa is defined as the mean current between 240 ms and 265 ms during the voltage step to −20 mV. After establishing the whole cell recording configuration, Late INa activator is added to each well 4 times over a 15 minute period so that the late component of the Na current reaches a stable value. Compounds were then added (typically at 0.3 or 1 μM), in the presence of the Late INa activator, with 3 additions over the course of 5 minutes. Measurements were made at the end of exposure to the third compound addition and values were normalized to the current level when all Na^+ was removed from the extracellular solution after two additions of 0Na-ECF.
Results are reported as percent block of late INa and results were analyzed by incorporating rundown correction for the Late INa.
(Patch clamp records ionic current or voltage across a cell membrane.)

[3] abbreviates: % inhibition, use-dependent block of peak INa at 3 uM, 3 Hz, pulse 50, read-out: Nav1.5 Peak UDB 3 Hz 3 uM.
Where [4] appears, read: read-out: Nav1.5 Peak TB 3 uM, % inhibition, tonic block of peak INa at 3 uM, 0.1 Hz, holding -100 mV.

Where two headings read alike, the source gives them in different places.

Sequence of wild-type human cardiac sodium channel, hNaV 1.5 (Late INa) (Q14524 whole entry): as above

With `Cc1cnc(CN2Cc3cc(-c4ccc(C(F)(F)F)cc4)ccc3OC2=O)nc1` [Example 13, 3-((5-methylpyrimidin-2-yl)methyl)-6-(4-(trifluoromethyl)phenyl)-3,4-dihydro-2H-benzo[e][1,3]oxazin-2-one], the inhibition at 3 µM in assay [1] (setting [3]) was 5.6%; in assay [1] (setting [4]), 29.4%. In addition, in assay [2], the inhibition at 1 µM came out at 49.6%.

Turning to `Cc1cnc(CN2Cc3cc(-c4ccc(OC(F)(F)F)cc4F)ccc3OC2=O)nc1` [Example 14, 6-(2-fluoro-4-(trifluoromethoxy)phenyl)-3-((5-methylpyrimidin-2-yl)methyl)-3,4-dihydro-2H-benzo[e][1,3]oxazin-2-one], the inhibition at 3 µM is < 5% in assay [1] (setting [3]) and 24% in assay [1] (setting [4]). In addition, the inhibition at 1 µM in assay [2] came to 39.3%.

With `O=C1Oc2ccc(-c3ccc(OC(F)(F)F)cc3)cc2CN1CCc1ncccn1` [Example 16, 3-(2-(pyrimidin-2-yl)ethyl)-6-(4-(trifluoromethoxy)phenyl)-3,4-dihydro-2H-benzo[e][1,3]oxazin-2-one], the inhibition at 3 µM was determined as 5.3% in assay [1] (setting [3]) and 22.1% in assay [1] (setting [4]). In assay [2], the inhibition at 1 µM turned out to be 48.5%.

Consider `O=C1Oc2ccc(-c3ccc(C(F)(F)F)cc3)cc2CN1CCc1ncccn1` [Example 17, 3-(2-(pyrimidin-2-yl)ethyl)-6-(4-(trifluoromethyl)phenyl)-3,4-dihydro-2H-benzo[e][1,3]oxazin-2-one], for which the inhibition at 3 µM in assay [1] (setting [3]) is < 5%; in assay [1] (setting [4]), 12.9%. Further, the inhibition at 1 µM in assay [2] was determined as 45%.

For the compound `COc1cc(OC(F)(F)F)ccc1-c1ccc2c(c1)CN(CCc1ncccn1)C(=O)O2` [Example 18, 6-(2-methoxy-4-(trifluoromethoxy)phenyl)-3-(2-(pyrimidin-2-yl)ethyl)-3,4-dihydro-2H-benzo[e][1,3]oxazin-2-one], the inhibition at 3 µM was < 5% in assay [1] (setting [3]) and 12.1% in assay [1] (setting [4]). Further, the inhibition at 1 µM in assay [2] amounted to 31.4%.

Consider `CCCOc1cc(C(F)(F)F)ccc1-c1ccc2c(c1)CN(CCc1ncccn1)C(=O)O2` [Example 19, 6-(2-propoxy-4-(trifluoromethyl)phenyl)-3-(2-(pyrimidin-2-yl)ethyl)-3,4-dihydro-2H-benzo[e][1,3]oxazin-2-one], for which the inhibition at 3 µM in assay [1] (setting [3]) stood at 9.6%; in assay [1] (setting [4]), 26.7%. In addition, the inhibition at 1 µM in assay [2] was 68%.

Turning to `O=C1Oc2ccc(-c3ccc(OC(F)(F)F)cc3)cc2CN1Cc1ccccn1` [Example 20, 3-(pyridin-2-ylmethyl)-6-(4-(trifluoromethoxy)phenyl)-3,4-dihydro-2H-benzo[e][1,3]oxazin-2-one], the inhibition at 3 µM in assay [1] (setting [3]) came out at 5.1%; in assay [1] (setting [4]) it was 32.8%. In addition, in assay [2], the inhibition at 1 µM worked out at 53.7%.

Consider `O=C1Oc2ccc(-c3ccc(OC(F)(F)F)cc3F)cc2CN1Cc1ccccn1` [Example 21, 6-(2-fluoro-4-(trifluoromethoxy)phenyl)-3-(pyridin-2-ylmethyl)-3,4-dihydro-2H-benzo[e][1,3]oxazin-2-one], for which the results for the inhibition at 3 µM in assay [1] (setting [3]) and in assay [1] (setting [4]) were < 5% and 23%, respectively. Besides, the inhibition at 1 µM in assay [2] stood at 44.7%.

Consider `COc1cc(OC(F)(F)F)ccc1-c1ccc2c(c1)CN(Cc1ccccn1)C(=O)O2` [Example 22, 6-(2-methoxy-4-(trifluoromethoxy)phenyl)-3-(pyridin-2-ylmethyl)-3,4-dihydro-2H-benzo[e][1,3]oxazin-2-one], for which the inhibition at 3 µM in assay [1] (setting [3]) was < 5%; in assay [1] (setting [4]) it was 24.9%. In assay [2], the inhibition at 1 µM amounted to 48.3%.

Consider `Cc1cc(OC(F)(F)F)ccc1-c1ccc2c(c1)CN(Cc1ccccn1)C(=O)O2` [Example 23, 6-(2-methyl-4-(trifluoromethoxy)phenyl)-3-(pyridin-2-ylmethyl)-3,4-dihydro-2H-benzo[e][1,3]oxazin-2-one], for which the inhibition at 3 µM is < 5% in assay [1] (setting [3]) and 19.4% in assay [1] (setting [4]). The inhibition at 1 µM in assay [2] was found to be 30.5%.

For the origin of these results see patent US9416128B2, “Fused heterocyclic compounds as ion channel modulators” (Gilead Sciences, Inc., priority 2013, dated 2016).
